Measurements reported in patent US4707491A, “Anticonvulsant γ-thiobutyrolactone derivatives” (Washington University, priority 1985, dated 1987).
Read-outs that look alike come from different tables or passages of the source.

Tests used:
[1] = tested on: maximal electroshock seizures; experiment: Maximal Electroshock Seizure Test; assay type: in vivo, mice; settings: for anti-MES activity: comparison of anticonvulsant profiles
Experimental: One recognized test which is frequently used for this purpose is to determine the capacity of the drug to modify the effects of maximal electric shock (MES) by inhibition of tonic hindlimb extension. See, for example, the test described by Swinyard and co-workers at J. Pharmacol. Exper. Therap. 106, 319-330 (1952).
(§1) Compounds were tested for anticonvulsant activity and toxicity in mice by the following tests.
Maximal Electroshock Seizure Test
At the time of peak effect of the test substance, a drop of 0.9% sodium chloride is applied to the eyes of each animal. Corneal electrodes are applied to the eyes, and an electrical stimulus of 50 mA is delivered for 0.2 sec. The animals are held by hand and released at the time of stimulation for observation of the seizure. Abolition of the hindleg tonic extension component is taken as the endpoint for this test.

[2] = tested on: pentylenetetrazol seizures; experiment: Pentylenetetrazol Seizure Threshold Test; assay type: in vivo; settings: Mus musculus, mice
Experimental: See, for example, Krall et al., Epilepsia 19, 409-428 (1978).
as §1
Pentylenetetrazol Seizure Threshold Test
The animals are placed in isolation cages and observed for the next 30 min. for the presence or absence of a seizure. A threshold convulsion is defined as one episode of clonic spasms that persists for at least a 5-sec period.

[3] = Rotorod Test for Toxicity; settings: mouse, in vivo; mice; rotorod at 6 rpm, 10 min; at time of peak effect
Experimental: The rotorod test is a standard method used in mice to access neurotoxicity and is described, for example, by Krall et al., Epilepsia 19, 409-428 (1978).
as §1
Rotorod Test for Toxicity
This test is used in mice to assess neurotoxicity. Mice are placed on the rotorod, which rotates at 6 rpm, and tested for maintenance of their equilibrium for 10 min. All mice are pre-tested before test substance is given. At the time of peak effect of the test substance, mice are put back on the rotorod for 10 min. Neurological deficit (toxicity) is indicated by the inability of the animal to maintain its equilibrium for 10 min. on this rotating rod.

[4] = read-out: ED50 against (clonic) seizures produced by 85 mg/kg pentylenetetrazol, 85 mg/kg pentylenetetrazol IP, clonic (threshold) seizures

Compound | anti-MES activity [1] | ED50 [2, 4] | ED50 ([2]; read-out: ED50 against clonic seizures produced by 100 mg/kg pentylenetetrazol, 100 mg/kg pentylenetetrazol IP, clonic seizures) | ED50 ([2]; read-out: ED50 against tonic seizures produced by 100 mg/kg pentylenetetrazol, 100 mg/kg pentylenetetrazol IP, tonic seizures) | protection against maximal electroshock seizures ([1]; mice, at doses up to 350 mg/kg) | TD50 [3] | ED50 ([1]; Mus musculus, read-out: ED50 against maximal electroshock seizures (MES))
CCC1(C)CC(=O)NC1=O (centres unmarked) [ethosuximide] | do not | – | – | – | – | – | –
CCCC(CCC)C(=O)O [valproic acid] | have anti-MES activity | – | – | – | – | – | –
CCC1(C)CCOC1=O (stereo not drawn) [α-EMBL, α-ethyl-α-methyl-γ-butyrolactone] | do not | 226 mg/kg | 304 mg/kg | 250 mg/kg | No protection | ~350 mg/kg | –
CC(C)C1CCSC1=O (stereo not drawn) [α-isopropyl-γ-thiobutyrolactone] | – | 137 mg/kg | – | – | – | 278 mg/kg | 240 mg/kg
